Biological target: T1, mTOR (Homo sapiens, UniProt P42345)
T1 construct: FLAG; made in house
Assay: In Vitro mTOR Kinase Assay (Echo), Test (a)(ii)
Type: biochemical
Details: table of enzyme assay Test (a)(ii); read-out: Test (a)(ii) IC50
Outline: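 FLAG-tagged human mTOR truncation (residues 1362-2549) expressed in HEK293 cells and FLAG-purified. Compounds dispensed acoustically, reaction 2 h at room temperature, stopped with EDTA. Phosphorylation of biotinylated peptide detected by AlphaScreen with anti-p70 S6K (T389) antibody overnight; IC50 reported.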

T1 sequence (P42345 1362-2549): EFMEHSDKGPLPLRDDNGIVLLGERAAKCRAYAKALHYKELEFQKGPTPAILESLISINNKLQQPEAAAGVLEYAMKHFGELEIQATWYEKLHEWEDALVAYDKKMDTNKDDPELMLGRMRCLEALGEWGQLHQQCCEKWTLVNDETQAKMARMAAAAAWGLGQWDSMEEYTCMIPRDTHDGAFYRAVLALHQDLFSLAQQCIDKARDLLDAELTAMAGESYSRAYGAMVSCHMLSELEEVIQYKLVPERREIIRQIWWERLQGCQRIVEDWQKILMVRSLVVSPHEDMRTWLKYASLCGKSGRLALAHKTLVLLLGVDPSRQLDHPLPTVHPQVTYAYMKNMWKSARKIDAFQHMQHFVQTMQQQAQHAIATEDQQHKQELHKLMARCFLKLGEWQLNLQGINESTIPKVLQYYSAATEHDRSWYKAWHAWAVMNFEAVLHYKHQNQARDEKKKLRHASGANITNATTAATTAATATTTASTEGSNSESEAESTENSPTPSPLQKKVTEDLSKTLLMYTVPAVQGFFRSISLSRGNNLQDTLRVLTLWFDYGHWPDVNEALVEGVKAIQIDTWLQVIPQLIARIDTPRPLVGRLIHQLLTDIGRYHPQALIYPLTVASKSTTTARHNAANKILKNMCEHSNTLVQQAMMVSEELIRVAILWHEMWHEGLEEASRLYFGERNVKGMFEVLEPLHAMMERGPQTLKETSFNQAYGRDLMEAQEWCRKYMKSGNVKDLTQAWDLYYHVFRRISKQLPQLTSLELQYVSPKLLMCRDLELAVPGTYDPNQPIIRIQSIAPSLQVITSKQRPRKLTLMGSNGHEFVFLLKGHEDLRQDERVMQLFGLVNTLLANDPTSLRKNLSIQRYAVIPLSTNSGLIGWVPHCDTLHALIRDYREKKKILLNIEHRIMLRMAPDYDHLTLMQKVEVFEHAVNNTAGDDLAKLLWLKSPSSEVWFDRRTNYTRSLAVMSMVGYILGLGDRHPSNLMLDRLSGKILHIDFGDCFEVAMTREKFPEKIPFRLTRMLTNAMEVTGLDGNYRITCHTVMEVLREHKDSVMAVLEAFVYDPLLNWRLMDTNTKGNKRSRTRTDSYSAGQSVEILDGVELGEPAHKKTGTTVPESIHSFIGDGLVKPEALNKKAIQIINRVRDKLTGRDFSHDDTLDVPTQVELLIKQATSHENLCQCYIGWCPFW

SMILES	IC50 [nM]
CCCNC(=O)Nc1ccc(-c2nc(N3CCOCC3)cc(C3(S(=O)(=O)c4nc(C)cs4)CC3)n2)cc1 [Example 42g, 3-[4-[4-[1-[(4-methyl-1,3-thiazol-2-yl)sulfonyl]cyclopropyl]-6-morpholin-4-ylpyrimidin-2-yl]phenyl]-1-propylurea]	4.01
Cc1csc(S(=O)(=O)C2(c3cc(N4CCOCC4)nc(-c4ccc(NC(=O)NC(C)C)cc4)n3)CC2)n1 [Example 42h, 1-[4-[4-[1-[(4-methyl-1,3-thiazol-2-yl)sulfonyl]cyclopropyl]-6-morpholin-4-ylpyrimidin-2-yl]phenyl]-3-propan-2-ylurea]	4.12
C[C@H]1COCCN1c1cc(C2(S(=O)(=O)CCCO)CCC2)nc(-c2ccc(NC(=O)NC3CC3)cc2)n1 [Example 43, 3-Cyclopropyl-1-[4-[4-[1-(3-hydroxypropylsulfonyl)cyclobutyl]-6-[(3S)-3-methylmorpholin-4-yl]pyrimidin-2-yl]phenyl]urea]	5.39
C[C@H]1COCCN1c1cc(C2(S(=O)(=O)CCCO)CCC2)nc(-c2ccc(NC(=O)Nc3cnn(C)c3)cc2)n1 [Example 43d, 1-[4-[4-[1-(3-hydroxypropylsulfonyl)cyclobu-tyl]-6-[(3S)-3-methylmorpholin-4-yl]pyrimidin-2-yl]phenyl]-3-(1-methylpyrazol-4-yl)urea]	11
C[C@H]1COCCN1c1cc(C2(S(=O)(=O)CCCO)CCCC2)nc(-c2ccc(NC(=O)NC3CC3)cc2)n1 [Example 43f, 3-cyclopropyl-1-[4-[4-[1-(3-hydroxypropyl-sulfonyl)cyclopen-tyl]-6-[(3S)-3-methylmorpholin-4-yl]pyrimidin-2-yl]phenyl]urea]	39.2
C[C@H]1COCCN1c1cc(C2(S(=O)(=O)CCCO)CCCC2)nc(-c2ccc(NC(=O)NCCC#N)cc2)n1 [Example 43h, 3-(2-cyanoethyl)-1-[4-[4-[1-(3-hydroxypropyl-sulfonyl)cyclopen-tyl]-6-[(3S)-3-methylmorpholin-4-yl]pyrimidin-2-yl]phenyl]urea]	133
C[C@H]1COCCN1c1cc(C2(S(=O)(=O)CCCO)CCCC2)nc(-c2ccc(NC(=O)NCCCO)cc2)n1 [Example 43i, 3-(3-hydroxypropyl)-1-[4-[4-[1-(3-hydroxypropyl-sulfonyl)cyclopen-tyl]-6-[(3S)-3-methylmorpholin-4-yl]pyrimidin-2-yl]phenyl]urea]	102
C[C@H]1COCCN1c1cc(C2(S(=O)(=O)CCCO)CCC2)nc(-c2ccc(NC(=O)NC(C)(C)CO)cc2)n1 [Example 43p, 3-(1-hydroxy-2-methylpropan-2-yl)-1-[4-[4-[1-(3-hydroxypropylsulfonyl)cyclobu-tyl]-6-[(3S)-3-methylmorpholin-4-yl]pyrimidin-2-yl]phenyl]urea]	55.5
CC(=O)NCCS(=O)(=O)C1(c2cc(N3CCOC[C@@H]3C)nc(-c3ccc(NC(=O)NC4CC4)cc3)n2)CC1 [Example 44, N-[2-[1-[2-[4-(Cyclopropylcarbamoylamino)phenyl]-6-[(3S)-3-methylmorpholin-4-yl]pyrimidin-4-yl]cyclopropyl]sulfonylethyl]acetamide]	23.4
NC(=O)CS(=O)(=O)C1(c2cc(N3CCOCC3)nc(-c3ccc(NC(=O)NC4CC4)cc3)n2)CC1 [Example 46, 2-[1-[2-[4-(Cyclopropylcarbamoylamino)phenyl]-6-morpholin-4-ylpyrimidin-4-yl]cyclopropyl]sulfonylacetamide]	4.56
CNC(=O)CS(=O)(=O)C1(c2cc(N3CCOCC3)nc(-c3ccc(NC(=O)NC4CC4)cc3)n2)CC1 [Example 46a]	12.6
O=C(Nc1ccc(-c2nc(N3CCOCC3)cc(C3(S(=O)(=O)CCO)CC3)n2)cc1)NC1CC1 [Example 47, 3-Cyclopropyl-1-[4-[4-[1-(2-hydroxyethylsulfonyl)cyclopropyl]-6-morpholin-4-ylpyrimidin-2-yl]phenyl]urea]	15.5
CNC(=O)Nc1ccc(-c2nc(N3CCOCC3)cc(C3(S(=O)(=O)CCO)CC3)n2)cc1 [Example 47a, 1-[4-[4-[1-(2-hydroxyethylsulfonyl)cyclopropyl]-6-morpholin-4-ylpyrimidin-2-yl]phenyl]-3-methylurea]	5.4
CCNC(=O)Nc1ccc(-c2nc(N3CCOCC3)cc(C3(S(=O)(=O)CCO)CC3)n2)cc1 [Example 47b, 3-ethyl-1-[4-[4-[1-(2-hydroxyethylsulfonyl)cyclopropyl]-6-morpholin-4-ylpyrimidin-2-yl]phenyl]urea]	14.9
CNC(=O)Nc1ccc(-c2nc(N3CCOC[C@@H]3C)cc(C3(S(=O)(=O)c4ccc(C(=O)N(C)C)cn4)CC3)n2)cc1 [Example 49, N,N-Dimethyl-6-[1-[2-[4-(methylcarbamoylamino)phenyl]-6-[(3S)-3-methylmorpholin-4-yl]pyrimidin-4-yl]cyclopropyl]sulfonylpyridine-3-carboxamide]	1.87

Continued, values first:

IC50 [nM]	SMILES
4.79	CNC(=O)Nc1ccc(-c2nc(N3CCOC[C@@H]3C)cc(C3(S(=O)(=O)CCCO)CCC3)n2)cc1 [Example 43a, 1-[4-[4-[1-(3-hydroxypropylsulfonyl)cyclobu-tyl]-6-[(3S)-3-methylmorpholin-4-yl]pyrimidin-2-yl]phenyl]-3-methylurea]
7.51	C[C@H]1COCCN1c1cc(C2(S(=O)(=O)CCCO)CCC2)nc(-c2ccc(NC(=O)NCCO)cc2)n1 [Example 43b, 3-(2-hydroxyethyl)-1-[4-[4-[1-(3-hydroxypropylsulfonyl)cyclobu-tyl]-6-[(3S)-3-methylmorpholin-4-yl]pyrimidin-2-yl]phenyl]urea]
28.8	C[C@H]1COCCN1c1cc(C2(S(=O)(=O)CCCO)CCC2)nc(-c2ccc(NC(=O)NCCC#N)cc2)n1 [Example 43c, 3-(2-cyanoethyl)-1-[4-[4-[1-(3-hydroxypropylsulfonyl)cyclobu-tyl]-6-[(3S)-3-methylmorpholin-4-yl]pyrimidin-2-yl]phenyl]urea]
188	C[C@H]1COCCN1c1cc(C2(S(=O)(=O)CCCO)CCC2)nc(-c2ccc(NC(=O)NCc3ncc[nH]3)cc2)n1 [Example 43e, 1-[4-[4-[1-(3-hydroxypropylsulfonyl)cyclobu-tyl]-6-[(3S)-3-methylmorpholin-4-yl]pyrimidin-2-yl]phenyl]-3-(1H-imidazol-2-ylmethyl)urea]
29	C[C@H]1COCCN1c1cc(C2(S(=O)(=O)CCCO)CCCC2)nc(-c2ccc(NC(=O)NCCO)cc2)n1 [Example 43g, 3-(2-hydroxyethyl)-1-[4-[4-[1-(3-hydroxypropyl-sulfonyl)cyclopen-tyl]-6-[(3S)-3-methylmorpholin-4-yl]pyrimidin-2-yl]phenyl]urea]
12	CCNC(=O)Nc1ccc(-c2nc(N3CCOC[C@@H]3C)cc(C3(S(=O)(=O)CCCO)CCC3)n2)cc1 [Example 43j, 1-ethyl-3-[4-[4-[1-(3-hydroxypropylsulfonyl)cyclobu-tyl]-6-[(3S)-3-methylmorpholin-4-yl]pyrimidin-2-yl]phenyl]urea]
25.7	CCCNC(=O)Nc1ccc(-c2nc(N3CCOC[C@@H]3C)cc(C3(S(=O)(=O)CCCO)CCC3)n2)cc1 [Example 43k, 3-[4-[4-[1-(3-hydroxypropylsulfonyl)cyclobu-tyl]-6-[(3S)-3-methylmorpholin-4-yl]pyrimidin-2-yl]phenyl]-1-propylurea]
23.6	C[C@H]1COCCN1c1cc(C2(S(=O)(=O)CCCO)CCC2)nc(-c2ccc(NC(=O)NCCCO)cc2)n1 [Example 43l, 3-(3-hydroxypropyl)-1-[4-[4-[1-(3-hydroxypropylsulfonyl)cyclobu-tyl]-6-[(3S)-3-methylmorpholin-4-yl]pyrimidin-2-yl]phenyl]urea]
5.31	C[C@H]1COCCN1c1cc(C2(S(=O)(=O)CCCO)CCC2)nc(-c2ccc(NC(=O)Nc3ccon3)cc2)n1 [Example 43m, 1-[4-[4-[1-(3-hydroxypropylsulfonyl)cyclobu-tyl]-6-[(3S)-3-methylmorpholin-4-yl]pyrimidin-2-yl]phenyl]-3-(1,2-oxazol-3-yl)urea]
11.9	C[C@H]1COCCN1c1cc(C2(S(=O)(=O)CCCO)CCC2)nc(-c2ccc(NC(=O)NCCF)cc2)n1 [Example 43n, 3-(2-fluoroethyl)-1-[4-[4-[1-(3-hydroxypropylsulfonyl)cyclobu-tyl]-6-[(3S)-3-methylmorpholin-4-yl]pyrimidin-2-yl]phenyl]urea]
15.7	C[C@H]1COCCN1c1cc(C2(S(=O)(=O)CCCO)CCC2)nc(-c2ccc(NC(=O)NCC(F)F)cc2)n1 [Example 43o, 3-(2,2-difluoroethyl)-1-[4-[4-[1-(3-hydroxypropylsulfonyl)cyclobu-tyl]-6-[(3S)-3-methylmorpholin-4-yl]pyrimidin-2-yl]phenyl]urea]
28	C[C@@H](CO)NC(=O)Nc1ccc(-c2nc(N3CCOC[C@@H]3C)cc(C3(S(=O)(=O)CCCO)CCC3)n2)cc1 [Example 43q, 3-[(2S)-1-hydroxypropan-2-yl]-1-[4-[4-[1-(3-hydroxypropylsulfonyl)cyclobu-tyl]-6-[(3S)-3-methylmorpholin-4-yl]pyrimidin-2-yl]phenyl]urea]
57.7	C[C@H](CO)NC(=O)Nc1ccc(-c2nc(N3CCOC[C@@H]3C)cc(C3(S(=O)(=O)CCCO)CCC3)n2)cc1 [Example 43r, 3-[(2R)-1-hydroxypropan-2-yl]-1-[4-[4-[1-(3-hydroxypropylsulfonyl)cyclobu-tyl]-6-[(3S)-3-methylmorpholin-4-yl]pyrimidin-2-yl]phenyl]urea]
6.29	C[C@H]1COCCN1c1cc(C2(S(=O)(=O)CCCO)CCC2)nc(-c2ccc(NC(=O)Nc3ncns3)cc2)n1 [Example 43s, 1-[4-[4-[1-(3-hydroxypropylsulfonyl)cyclobu-tyl]-6-[(3S)-3-methylmorpholin-4-yl]pyrimidin-2-yl]phenyl]-3-(1,2,4-thiadiazol-5-yl)urea]
5.45	C[C@H]1COCCN1c1cc(C2(S(=O)(=O)CCCO)CCC2)nc(-c2ccc(NC(=O)Nc3nccs3)cc2)n1 [Example 43t, 1-[4-[4-[1-(3-hydroxypropylsulfonyl)cyclobu-tyl]-6-[(3S)-3-methylmorpholin-4-yl]pyrimdiin-2-yl]phenyl]-3-(1,3-thiazol-2-yl)urea]

From patent US20090018134A1, “Compounds - 945” (AstraZeneca AB, priority 2007, published 2009)
